Measured values published in patent EP0227941A1, “1-Phenyl-4-(1H)-pyridazinimines, their preparation and use” (BASF Aktiengesellschaft, priority 1985, dated 1987).
Counter-ions that a name gives are not always drawn. Like-named read-outs stand apart in the source and are kept apart here.

Key:
Type in all cases: biochemical, Ratten
[1] = target: T1, Synaptosomen-Aufnahme von Serotonin (Rattus norvegicus, UniProt P31652); experiment: Inhibition of serotonin uptake in rat brain synaptosomes (cortex, 3H-serotonin); conditions: for Hemmung der Synaptosomen-Aufnahme von Serotonin r.W. (relative Wirksamkeit): Quotient IC50 Referenzverbindung / IC50 Beispielverbindung
T1 construct: Durch differentielle Zentrifugation wurden Synaptosomen erhalten; from tissue; host or cells: rat brain cortex synaptosomes
Source text: (§1) Hemmung der Neurotransmitter-Aufnahme in Rattenhirn-Synaptosomen
(§2) Hippocampus und Cortex aus Rattenhirn wurden präpariert und in 0,32 M Sucrose-Lösung homogenisiert. Durch differentielle Zentrifugation wurden Synaptosomen erhalten, die in Pufferlösung suspendiert wurden. Die Synaptosomen sind in der Lage, aus dem umgebenden Medium zugefügte Neurotransmittersubstanzen (z.B. Noradrenalin oder Serotonin) aktiv aufzunehmen. Dieser Vorgang ist durch uptake-Hemmer konzentrationsabhängig antagonisierbar. Die Synaptosomen wurden mit den Testsubstanzen in verschiedenen Konzentrationen versetzt und anschließend mit ³H-Noradrenalin (Hippocampus) bzw. ³H-Serotonin (Cortex) bei 37°C inkubiert. Die Substratkonzentration betrug ca. 10 nM. Nach Stoppen der Aufnahme durch Verdünnen mit eisgekühlter Pufferlösung wurden die Synaptosomen abzentrifugiert und die ³H-Aktivität im Sediment gemessen. Der Blindwert wird durch Inkubation bei 0°C ermittelt.
(§3) Aus den verschiedenen Inhibitor-Konzentrationen gegen Kontrolle ermittelten Hemmwerten wurde durch lineare Regression nach logit-log-Transformation die mittlere Hemmkonzentration IC₅₀ berechnet.

Monoaminoxidase Typ A = target: T2, Monoaminoxidase Typ A (Rattus norvegicus, UniProt P21396); experiment: Inhibition of monoamine oxidase type A in rat brain homogenate (14C-tryptamine); conditions: for Hemmung der Monoaminoxidase Typ A r.W. (relative Wirksamkeit): Quotient IC50 Referenzverbindung / IC50 Beispielverbindung
T2 construct: Die Bestimmung der Monoaminoxidase erfolgte in verdünntem Rattenhirnhomogenat; from tissue; host or cells: rat brain homogenate
T2 sequence (P21396 1-526): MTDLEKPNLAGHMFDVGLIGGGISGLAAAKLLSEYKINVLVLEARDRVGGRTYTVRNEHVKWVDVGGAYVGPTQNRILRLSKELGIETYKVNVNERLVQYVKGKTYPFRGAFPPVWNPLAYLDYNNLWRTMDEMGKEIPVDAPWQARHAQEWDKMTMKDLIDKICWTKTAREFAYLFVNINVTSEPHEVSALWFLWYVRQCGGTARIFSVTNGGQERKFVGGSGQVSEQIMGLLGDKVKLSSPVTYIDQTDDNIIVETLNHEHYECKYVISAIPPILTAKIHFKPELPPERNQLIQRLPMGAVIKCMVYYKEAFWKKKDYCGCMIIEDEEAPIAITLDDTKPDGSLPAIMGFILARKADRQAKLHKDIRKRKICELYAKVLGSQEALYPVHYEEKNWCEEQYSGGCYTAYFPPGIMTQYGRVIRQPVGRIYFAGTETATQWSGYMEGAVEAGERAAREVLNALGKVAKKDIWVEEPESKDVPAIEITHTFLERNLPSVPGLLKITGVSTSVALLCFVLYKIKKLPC
Description: (§4) Hemmung der Monoaminoxidase
(§5) Die Bestimmung der Monoaminoxidase erfolgte in verdünntem Rattenhirnhomogenat dem 1. unterschiedliche Konzentrationen der zu prüfenden Testsubstanzen und 2. für die Bestimmung der Monoaminoxidase Typ A ¹⁴C-Tryptamin in einer Konzentration von 0,4 µmol, zur Bestimmung der Monoaminoxidase Typ B ¹⁴C-Phenylethylamin in einer Konzentration von 0,25 µmol zugesetzt wurde. Dieser Ansatz wurde 20 Minuten bei 37°C inkubiert. Die Reaktion wird durch 0,1 n HCl gestoppt und die Reaktionsprodukte nach Extraktion in Toluol-Szintillator (PPO + POPOP in Toluol) bestimmt. Der Blindwert wird in analogen Ansätzen mit einer Inkubationszeit von t = 0 Minuten bestimmt.
(§6) Aus den bei den verschiedenen Inhibitorkonzentrationen gegen die Kontrolle ermittelten Hemmwerten wurde durch lineare Regression nach logit-log-Transformation die mittlere Hemmkonzentration (IC₅₀) berechnet.

[2] = target: T3, Synaptosomen-Aufnahme von Noradrenalin (Rattus norvegicus, UniProt Q63380); experiment: Inhibition of noradrenaline uptake in rat brain synaptosomes (hippocampus, 3H-noradrenaline); conditions: for Hemmung der Synaptosomen-Aufnahme von Noradrenalin r.W. (relative Wirksamkeit): Quotient IC50 Referenzverbindung / IC50 Beispielverbindung
T3 construct: Durch differentielle Zentrifugation wurden Synaptosomen erhalten; from tissue; host or cells: rat brain hippocampus synaptosomes
Source text: as §1, §2, §3

Monoaminoxidase Typ B = target: T4, Monoaminoxidase Typ B (Rattus norvegicus, UniProt P19643); experiment: Inhibition of monoamine oxidase type B in rat brain homogenate (14C-phenylethylamine); conditions: for Hemmung der Monoaminoxidase Typ B r.W. (relative Wirksamkeit): Quotient IC50 Referenzverbindung / IC50 Beispielverbindung
T4 construct: Die Bestimmung der Monoaminoxidase erfolgte in verdünntem Rattenhirnhomogenat; from tissue; host or cells: rat brain homogenate
T4 sequence (P19643 1-520): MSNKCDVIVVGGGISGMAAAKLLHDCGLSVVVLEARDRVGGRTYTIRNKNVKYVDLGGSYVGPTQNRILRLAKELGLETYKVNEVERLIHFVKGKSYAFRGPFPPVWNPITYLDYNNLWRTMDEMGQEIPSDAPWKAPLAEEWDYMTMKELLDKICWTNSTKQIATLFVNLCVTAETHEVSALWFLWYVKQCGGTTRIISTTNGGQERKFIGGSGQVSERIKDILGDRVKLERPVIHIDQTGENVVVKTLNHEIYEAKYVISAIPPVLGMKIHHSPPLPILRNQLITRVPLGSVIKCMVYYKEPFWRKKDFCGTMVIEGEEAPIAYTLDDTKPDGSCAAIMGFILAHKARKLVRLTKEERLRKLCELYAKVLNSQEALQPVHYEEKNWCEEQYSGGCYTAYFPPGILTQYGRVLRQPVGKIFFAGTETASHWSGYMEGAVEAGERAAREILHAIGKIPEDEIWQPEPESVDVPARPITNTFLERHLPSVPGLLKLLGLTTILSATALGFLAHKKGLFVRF
Description: as §4, §5, §6

[3] = rat cortex synaptosomes, 3H-Serotonin ca. 10 nM, 37°C, read-out: Hemmung der Synaptosomen-Aufnahme von Serotonin IC50
[4] = rat brain homogenate, 14C-Tryptamin, 20 min 37°C, read-out: Hemmung der Monoaminoxidase Typ A IC50
[5] = rat hippocampus synaptosomes, 3H-Noradrenalin ca. 10 nM, 37°C, read-out: Hemmung der Synaptosomen-Aufnahme von Noradrenalin IC50
[6] = rat brain homogenate, 14C-Phenylethylamin, 20 min 37°C, read-out: Hemmung der Monoaminoxidase Typ B IC50

T1 sequence (P31652 whole entry): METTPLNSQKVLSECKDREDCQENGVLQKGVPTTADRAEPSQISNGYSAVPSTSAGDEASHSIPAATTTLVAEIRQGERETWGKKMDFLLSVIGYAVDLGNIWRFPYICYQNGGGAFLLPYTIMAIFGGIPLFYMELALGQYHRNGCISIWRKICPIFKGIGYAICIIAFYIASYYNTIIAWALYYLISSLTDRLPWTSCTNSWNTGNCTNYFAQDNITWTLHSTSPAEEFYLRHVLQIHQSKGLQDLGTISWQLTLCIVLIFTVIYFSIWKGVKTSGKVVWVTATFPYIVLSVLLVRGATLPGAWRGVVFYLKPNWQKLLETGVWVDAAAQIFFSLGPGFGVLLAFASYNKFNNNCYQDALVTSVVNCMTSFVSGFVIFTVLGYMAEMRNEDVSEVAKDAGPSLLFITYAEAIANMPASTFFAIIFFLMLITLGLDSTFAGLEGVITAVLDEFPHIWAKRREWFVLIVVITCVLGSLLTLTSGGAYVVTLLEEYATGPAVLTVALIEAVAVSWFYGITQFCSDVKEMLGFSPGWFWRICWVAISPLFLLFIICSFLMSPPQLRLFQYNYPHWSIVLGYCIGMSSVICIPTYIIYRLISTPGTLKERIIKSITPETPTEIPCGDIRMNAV
T3 sequence (Q63380 1-617): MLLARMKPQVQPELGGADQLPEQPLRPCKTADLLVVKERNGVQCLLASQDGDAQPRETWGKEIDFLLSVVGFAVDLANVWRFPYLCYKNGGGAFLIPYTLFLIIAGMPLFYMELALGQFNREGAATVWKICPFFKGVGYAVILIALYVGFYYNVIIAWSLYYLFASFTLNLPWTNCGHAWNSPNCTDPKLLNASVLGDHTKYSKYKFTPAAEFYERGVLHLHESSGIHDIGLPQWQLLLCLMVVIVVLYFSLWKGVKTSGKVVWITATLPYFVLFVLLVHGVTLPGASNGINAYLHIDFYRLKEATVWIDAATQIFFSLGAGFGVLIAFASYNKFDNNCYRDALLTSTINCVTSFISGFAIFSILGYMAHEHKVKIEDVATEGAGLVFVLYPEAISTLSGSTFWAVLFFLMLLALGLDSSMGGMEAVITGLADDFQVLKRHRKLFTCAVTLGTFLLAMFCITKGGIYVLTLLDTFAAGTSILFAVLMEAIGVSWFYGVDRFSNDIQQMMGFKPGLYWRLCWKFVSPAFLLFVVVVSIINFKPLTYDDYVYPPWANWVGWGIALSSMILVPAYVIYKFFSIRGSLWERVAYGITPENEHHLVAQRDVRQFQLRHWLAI

Compound | Hemmung der Synaptosomen-Aufnahme von Serotonin r.W. (relative Wirksamkeit) [1] | IC50 [1, 3] [nM] | Hemmung der Monoaminoxidase Typ A r.W. (relative Wirksamkeit) (Monoaminoxidase Typ A) | IC50 (Monoaminoxidase Typ A; [4]) [nM] | Hemmung der Synaptosomen-Aufnahme von Noradrenalin r.W. (relative Wirksamkeit) [2] | IC50 [2, 5] [nM] | Hemmung der Monoaminoxidase Typ B r.W. (relative Wirksamkeit) (Monoaminoxidase Typ B) | IC50 (Monoaminoxidase Typ B; [6]) [nM] | IC50 [1] [nM] | IC50 (Monoaminoxidase Typ A) [nM] | IC50 [2] [nM] | IC50 (Monoaminoxidase Typ B) [nM] | Hemmung der Monoaminoxidase A, Wirksamkeit der Vergleichssubstanz übertroffen (fach) (Monoaminoxidase Typ A; fold versus comparison substance)
N=c1ccn(-c2ccc(Cl)c(Cl)c2)nc1 [Beispiel 1, 1-(3,4-Dichlorphenyl)-4-(1H)-pyridazinimin-hydrochlorid] | 112 | 6.5 | 2.2 | 1900 | 5.3 | 5.8 | 18.8 | 2600 |  |  |  |  | 
Br.Cc1ccc(-n2ccc(=N)cn2)cc1 [Beispiel 5, 1-(4-Methylphenyl)-4-(1H)-pyridazinimin-hydrobromid] | 1.4 |  | 2.8 |  | 0.7 |  | 4.9 |  | 240 | 1500 | 46 | 10000 | 
CCc1ccc(-n2ccc(=N)cn2)cc1.Cl [Beispiel 7, 1-(4-Ethylphenyl)-4-(1H)-pyridazinimin-hydrochlorid] | 12.6 |  | 6.6 |  | 0.1 |  | 32.7 |  | 58 | 640 | 500 | 1500 | 
N=c1ccn(-c2ccc(Br)cc2)nc1 [Beispiel 8, 1-(4-Bromphenyl)-4-(1H)-pyridazinimin-hydrochlorid] | 56.2 | 13 | 1.4 | 2900 | 0.9 | 34 | 4.9 | 10000 |  |  |  |  | 
COc1cc(-n2ccc(=N)cn2)ccc1C.Cl [Beispiel 10, 1-(3-Methoxy-4-methylphenyl)-4-(1H)-pyridazinimin-hydrochlorid] | 15.2 |  | 3.4 |  | 0.3 |  | 4.9 |  | 48 | 1200 | 110 | 10000 | 
Cc1ccc(-n2ccc(=N)cn2)cc1F [Beispiel 11, 1-(3-Fluor-4-methylphenyl)-4-(1H)-pyridazinimin-hydrochlorid] | 7.3 | 100 | 2.0 | 2100 | 1.2 | 26 | 9.6 | 5100 |  |  |  |  | 
N=c1ccn(-c2ccc(C(F)(F)F)c(Cl)c2)nc1 [Beispiel 12, 1-(3-Chlor-4-trifluormethylphenyl)-4-(1H)-pyridazinimin-hydrochlorid] | 83.9 | 8.7 | 2.3 | 1800 | 0.4 | 83 | 71 | 700 |  |  |  |  | 
Cc1ccc(-n2ccc(=N)cn2)cc1Br [Beispiel 13, 1-(3-Brom-4-methylphenyl)-4-(1H)-pyridazinimin-hydrochlorid] | 73.0 | 10 | 7.0 | 590 | 1.2 | 26 | 39.8 | 1200 |  |  |  |  | ≤ 7
N=c1ccn(-c2ccc(Cl)c(Br)c2)nc1 [Beispiel 16, 1-(3-Brom-4-chlorphenyl)-4-(1H)-pyridazinimin-hydrochlorid] | 109 | 6.7 | 2.0 | 2140 | 2.5 | 13 | 18.1 | 2700 |  |  |  |  | 
N=c1ccn(-c2ccc(Br)c(Cl)c2)nc1 [Beispiel 17, 1-(3-Chlor-4-bromphenyl)-4-(1H)-pyridazinimin-hydrochlorid] | 184 | 3.9 | 2.7 | 1530 | 6.5 | 4.8 | 19.0 | 2600 |  |  |  |  | 
N=c1ccn(-c2ccc(Br)c(Br)c2)nc1 [Beispiel 18, 1-(3,4-Dibromphenyl)-4-(1H)-pyridazinimin-hydrochlorid] | 261 | 2.8 | 4.8 | 870 | 6.1 | 5.1 | 25.8 | 1900 |  |  |  |  | 
N=c1ccn(-c2ccc(C(F)(F)F)cc2)nc1 [Beispiel 32, 1-(4-Trifluormethylphenyl)-4-(1H)-pyridazinimin-hydrobromid] | 16.6 | 44 | 0.6 | 7000 | 0.1 | 700 | 12.2 | 4000 |  |  |  |  | 
Cc1ccc(-n2ccc(=N)cn2)cc1Cl [Beispiel 42, 1-(3-Chlor-4-methylphenyl)-4-(1H)-pyridazinimin-hydrochlorid] | 36.5 | 20 | 5.6 | 750 | 2.1 | 15 | 24.5 | 2000 |  |  |  |  | 
Cc1cc(-n2ccc(=N)cn2)ccc1Cl [Beispiel 45, 1-(3-Methyl-4-chlorphenyl)-4-(1H)-pyridazinimin-sulfat] | 40.6 | 18 | 4.2 | 1000 | 1.8 | 17 | 9.8 | 5000 |  |  |  |  | 
